# Assay results reported in publication PMC6409085, “Three odorant-binding proteins are involved in the behavioral response of Sogatella furcifera to rice plant volatiles” (PeerJ, 2019).
# Like-named read-outs stand apart in the source and are kept apart here.
# Columns and labels:
# [1] = tested on: S. furcifera adults; set-up: method as in Wang et al., 2017; settings: previously reported, ref Wang et al., 2017, cited from earlier work
# [2] = tested on: dsRNA treated S. furcifera adults; assay: Y-tube olfactometer behavioral trials after RNAi; format: in vivo, Sogatella furcifera; settings: for number of insects choosing hexane arm / number of insects choosing volatile arm / number of insects failed (no choice): odorant vs hexane
# Method: To test the effect of the rice odorants on the behavior of S. furcifera adults, a glass Y-tube olfactometer (inner diameter 2.0 cm, stem 13 cm, arms 10 cm, angle of arms 60°) according to the previously described ([Wang et al., 2014b]) was employed. An airtight cubic box (70 by 45 by 30 cm) was used to position Y-tube, and the Y-tube was lighted by a 30-W filament lamp 25 cm above it. Air that filtered through activated charcoal and humidified with doubly distilled water was pumped in both arms at a flow rate of 300 mL/min. Two filter paper strips (10 by 1 cm) containing 100 µL odorant source (50 µL/L) and 100 µL control hexane were placed in two holding chambers in the front of the olfactometer, respectively. A S. furcifera adult (2 days after emergence, starved for 0.5 h) was randomly chosen and placed in the stem of the Y-tube. Each insect was given 10 min to choose between the two arms of the Y-tube, the choice was noted if the planthopper reached one-half of the arms’ lengths and stayed in the arm for more than 1 min. Besides, S. furcifera was considered as having no orientation preference. Forty-five individuals were used for each compound, each insect used only once. And the dual-choice experiment was done in an environmentally controlled room (25 ± 1 °C and 50% RH). A Chi-squared test was used to analyze the behavioral assay data by using SPSS19.0 (SPSS Inc., Chicago, IL, USA) software.
# S. furcifera adults (one-day-old, CO2 anesthetized) were injected with dsRNA (50 nL/adult, 2,000 ng/µL) through the membrane between the meso- and meta-thoracic legs using a Nanoinjector (Drummond Scientific, Broomall, PA, USA). Five treatments including dsOBP2, dsOBP3, dsOBP11, dsEGFP and RNase-free water (Control) were set up. Each treatment consisted of 30 adults and the experiments were repeated three times. Ten individuals were collected from each replicate to determine the effects of RNAi by qPCR post 24 h of dsRNA injection (the timepoint with maximum RNAi efficiency after injection). Meanwhile, the behavioral responses of dsRNA treated adults for volatiles which binding well to OBP and attract or repel to S. furcifera were tested using a Y-tube olfactometer as described above.
smiles,measurement,setting,value
C/C(=C\CO)CCC[C@H](C)CCC[C@H](C)CCCC(C)C [plant alcohol],behavioral response of S. furcifera (in words),[1],significantly repellent effect
same,behavioral response of S. furcifera (in words),[1]; listed as Plant alcohol,strongly repellent
same,behavioral response (in words),[2]; dsOBP11 injected adults,lost the activation that repel
same,number of insects choosing hexane arm,[2]; dsOBP11 injected adults,17
same,number of insects choosing volatile arm,[2]; dsOBP11 injected adults,19
same,number of insects failed (no choice),[2]; dsOBP11 injected adults,13
C=C/C(C)=C/C/C=C(\C)CCC=C(C)C [α-farnesene],behavioral response (in words),[2]; dsOBP3 injected adults,no longer attracted
same,number of insects choosing hexane arm,[2]; dsOBP3 injected adults,11
same,number of insects choosing volatile arm,[2]; dsOBP3 injected adults,12
same,number of insects failed (no choice),[2]; dsOBP3 injected adults,15
CC(=O)/C=C/C1=C(C)CCCC1(C)C [β-Ionone],behavioral response (in words),[2]; SfurOBP2 silenced adults,significantly reduced the number of adults that attracted
same,number of insects choosing hexane arm,[2]; dsOBP2 injected adults,14
same,number of insects choosing volatile arm,[2]; dsOBP2 injected adults,13
same,number of insects failed (no choice),[2]; dsOBP2 injected adults,15
same,number of insects choosing hexane arm,[2]; dsOBP3 injected adults,9
same,number of insects choosing volatile arm,[2]; dsOBP3 injected adults,16
same,number of insects failed (no choice),[2]; dsOBP3 injected adults,15
same,number of insects choosing hexane arm,[2]; dsOBP11 injected adults,8
same,number of insects choosing volatile arm,[2]; dsOBP11 injected adults,17
same,number of insects failed (no choice),[2]; dsOBP11 injected adults,16
